The source made the active and inactive calls. The calls are words filed in the database; no cut-off is given here. Bridge positions count the residues as written; N and C are the ends. Square brackets hold non-standard residues; d marks the D form. Peptide text beside a SMILES is read from it. ξ: configuration not given here. ξNle = CCCCC(N)C(=O)O
Legend:
Leishmania infantum [1] = experiment: Antileishmanial activity against Leishmania infantum axenic amastigotes assessed as induction of cell death at 25 uM after 24 hrs by propidium iodide staining based flow cytometry; format: functional
Leishmania infantum [2] = experiment: Antileishmanial activity against Leishmania infantum MCAN/ES/89/IPZ229/1/89 promastigotes assessed as induction of cell death at 25 uM after 24 hrs by propidium iodide staining based flow cytometry; format: functional
Trypanothione reductase [3] = biological target: T1, Trypanothione reductase (Leishmania infantum, UniProt A4HSF7); experiment: Inhibition of recombinant Leishmania infantum TryR preincubated for 10 mins followed by T[S]2 substrate addition and measured after 1 hr in presence of NADPH
T1 sequence (A4HSF7 whole entry): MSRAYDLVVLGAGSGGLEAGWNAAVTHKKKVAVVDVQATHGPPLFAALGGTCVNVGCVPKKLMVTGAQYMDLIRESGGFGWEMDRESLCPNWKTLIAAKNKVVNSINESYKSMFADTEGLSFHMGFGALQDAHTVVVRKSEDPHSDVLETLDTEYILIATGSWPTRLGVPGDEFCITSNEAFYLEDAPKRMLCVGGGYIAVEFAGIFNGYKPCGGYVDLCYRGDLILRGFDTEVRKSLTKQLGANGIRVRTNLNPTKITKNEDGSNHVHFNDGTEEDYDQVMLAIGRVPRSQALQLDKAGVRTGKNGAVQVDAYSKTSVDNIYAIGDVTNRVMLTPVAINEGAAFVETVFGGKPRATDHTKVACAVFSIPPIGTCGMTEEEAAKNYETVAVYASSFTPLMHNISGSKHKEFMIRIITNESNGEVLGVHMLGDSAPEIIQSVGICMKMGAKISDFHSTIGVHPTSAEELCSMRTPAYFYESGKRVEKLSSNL

Trypanothione reductase [4] = biological target: T1, Trypanothione reductase; experiment: Inhibition of recombinant His/FLAG-tagged Leishmania infantum TryR dimerization assessed as dimer disruption after 1 hr by ELISA
Leishmania infantum [5] = experiment: Drug localization in Leishmania infantum MCAN/ES/89/IPZ229/1/89 promastigotes after 24 hrs by fluorescence microscopic method; format: ADME; conditions: in vivo
Leishmania infantum [6] = experiment: Drug localization in Leishmania infantum MCAN/ES/89/IPZ229/1/89 promastigotes flagellum after 4 hrs by fluorescence microscopic method; format: ADME; conditions: in vivo
[7] = Stability assessed as Tritirachium album proteinase K- mediated compound degradation by measuring half life at 100 uM by HPLC method; format: ADME; conditions: parengyodontium album
Leishmania infantum [8] = experiment: Antileishmanial activity against Leishmania infantum axenic amastigotes assessed as induction of cell death after 24 hrs by propidium iodide staining based flow cytometry; format: functional
[9] = Cytotoxicity against human THP1 cells assessed as induction of cell death after 24 hrs by propidium iodide staining based flow cytometry; conditions: THP-1 cells, read-out: LC50
Leishmania infantum [10] = experiment: Antileishmanial activity against Leishmania infantum MCAN/ES/89/IPZ229/1/89 promastigotes assessed as induction of cell death after 24 hrs by propidium iodide staining based flow cytometry; format: functional; conditions: MCAN/ES/89/IPZ229/1/89, 24 h

Drug uptake (Leishmania infantum [5])	Drug uptake (Leishmania infantum [6])	SMILES	Activity (Leishmania infantum [1])	Activity (Leishmania infantum [2])	IC50 (Trypanothione reductase [3]) [µM]	IC50 (Trypanothione reductase [4]) [µM]	half-life at 100 µM [7] [min]	LC50 (Leishmania infantum [8]) [µM]	CC50 at 24 h [9] [µM]	LC50 (Leishmania infantum [10]) [µM]
		CC[C@H](C)[C@H](NC(=O)[C@@H]1CCCCNC(=O)CC[C@H](NC(=O)[C@@H](NC(=O)[C@H](CCCCN)NC(=O)[C@@H]2CCCN2C(C)=O)[C@@H](C)CC)C(=O)N[C@@H](CCC(N)=O)C(=O)NC(CO)C(=O)N[C@@H](C(C)C)C(=O)N1)C(N)=O (single isomer, unassigned)	inactive	inactive	> 75	> 75				
Active	Active	CCCCC(NC(=O)[C@H](CCCCN)NC(=O)C(CCCC)NC(=O)[C@H](CO)NC(=O)[C@@H](NC(=O)CNC(=O)[C@@H](NC(=O)[C@H](CO)NC(=O)[C@H](CCC(N)=O)NC(=O)[C@@H](NC(=O)[C@@H](NC(=O)[C@H](CCCCN)NC(=O)[C@@H]1CCCN1C(=O)COCCOCCNC(=S)Nc1ccc(-c2c3ccc(=O)cc-3oc3cc(O)ccc23)c(C(=O)O)c1)[C@@H](C)CC)[C@@H](C)CC)C(C)C)[C@@H](C)CC)C(=O)N[C@H](CCCNC(=N)N)NC(=O)[C@H](CCCNC(=N)N)NC(=O)[C@H](CCCNC(=N)N)NC(=O)[C@H](CCCNC(=N)N)NC(=O)[C@H](CCCNC(=N)N)NC(=O)[C@H](CCCNC(=N)N)NC(=O)[C@H](CCCNC(=N)N)NC(=O)[C@H](CCCNC(=N)N)NC(=O)[C@@H](N)CCCNC(=N)N (stereo partly drawn)								
		CCCCC(NC(=O)[C@H](CCCCN)NC(=O)C(CCCC)NC(=O)[C@H](CO)NC(=O)[C@@H](NC(=O)CNC(=O)[C@@H]1CCCCNC(=O)CC[C@H](NC(=O)[C@H](CCCCN)NC(=O)[C@@H]2CCCN2C(C)=O)C(=O)N[C@@H]([C@@H](C)CC)C(=O)N[C@@H](CCC(N)=O)C(=O)N[C@@H](CO)C(=O)N1)[C@@H](C)CC)C(N)=O (stereo partly drawn) (Ac-PKEIQSKGIS[ξNle]K[ξNle]-NH2; lactam 3-7)	inactive	inactive	0.9	9.9	52			
		CCCCC(NC(=O)[C@H](CCCCN)NC(=O)C(CCCC)NC(=O)[C@H](CO)NC(=O)[C@@H](NC(=O)CNC(=O)[C@@H](NC(=O)[C@H](CO)NC(=O)[C@H](CCC(N)=O)NC(=O)[C@@H](NC(=O)[C@@H](NC(=O)[C@H](CCCCN)NC(=O)[C@@H]1CCCN1C(C)=O)[C@@H](C)CC)[C@@H](C)CC)C(C)C)[C@@H](C)CC)C(N)=O (stereo partly drawn)	inactive	inactive	1.2	13.5	23			
		CCCCC(NC(=O)[C@H](CCCCN)NC(=O)C(CCCC)NC(=O)[C@H](CO)NC(=O)[C@@H](NC(=O)[C@@H]1CCCCNC(=O)CC[C@H](NC(=O)[C@@H](NC(=O)[C@H](CCCCN)NC(=O)[C@@H]2CCCN2C(C)=O)[C@@H](C)CC)C(=O)N[C@@H](CCC(N)=O)C(=O)NC(CO)C(=O)N[C@@H](C(C)C)C(=O)N1)[C@@H](C)CC)C(N)=O (single isomer, unassigned)	inactive	inactive	5.3	14.4	64			
		CCCCC(NC(=O)[C@@H]1CCCCNC(=O)CC[C@H](NC(=O)[C@@H](NC(=O)[C@H](CO)NC(=O)[C@H](CCC(N)=O)NC(=O)[C@@H](NC(=O)[C@@H](NC(=O)[C@H](CCCCN)NC(=O)[C@@H]2CCCN2C(C)=O)[C@@H](C)CC)[C@@H](C)CC)C(C)C)C(=O)N[C@@H]([C@@H](C)CC)C(=O)N[C@@H](CO)C(=O)NC(CCCC)C(=O)N1)C(N)=O (stereo partly drawn)	inactive	inactive	27	12.1				
		CC(=O)NCC(=O)N[C@@H](CCCNC(=N)N)C(=O)N[C@@H](CCCCN)C(=O)N[C@@H](CCCCN)C(=O)N[C@@H](CCCNC(=N)N)C(=O)N[C@@H](CCCNC(=N)N)C(=O)N[C@@H](CCC(N)=O)C(=O)N[C@@H](CCCNC(=N)N)C(=O)N[C@@H](CCCNC(=N)N)C(=O)N[C@@H](CCCNC(=N)N)C(=O)N1CCC[C@H]1C(=O)N1CCC[C@H]1C(=O)N[C@@H](CCC(N)=O)C(N)=O						> 25	> 25	> 25
		CC[C@H](C)[C@H](NC(=O)CNC(=O)[C@@H](NC(=O)[C@H](CO)NC(=O)[C@H](CCC(N)=O)NC(=O)[C@@H](NC(=O)[C@@H](NC(=O)[C@H](CCCCN)NC(=O)[C@@H]1CCCN1C(C)=O)[C@@H](C)CC)[C@@H](C)CC)C(C)C)C(N)=O	inactive	inactive	3.7	20.8				
		CCCCC(NC(=O)[C@H](CCCCN)NC(=O)[C@@H]1CCCCNC(=O)CC[C@H](NC(=O)[C@H](CO)NC(=O)[C@H](CCC(N)=O)NC(=O)[C@@H](NC(=O)[C@@H](NC(=O)[C@H](CCCCN)NC(=O)[C@@H]2CCCN2C(C)=O)[C@@H](C)CC)[C@@H](C)CC)C(=O)NCC(=O)N[C@@H]([C@@H](C)CC)C(=O)N[C@@H](CO)C(=O)N1)C(N)=O (stereo partly drawn) (Ac-PKIIQSEGISKK[ξNle]-NH2; lactam 7-11)	inactive	inactive	> 75	> 75				
		CCCCCCCCCCCCCCCCOP(=O)([O-])OCC[N+](C)(C)C [MILTEFOSINE]						2	19	47.6
		CC[C@H](C)[C@H](NC(=O)CNC(=O)[C@@H]1CCCCNC(=O)CC[C@H](NC(=O)[C@H](CCCCN)NC(=O)[C@@H]2CCCN2C(C)=O)C(=O)N[C@@H]([C@@H](C)CC)C(=O)N[C@@H](CCC(N)=O)C(=O)N[C@@H](CO)C(=O)N1)C(N)=O (Ac-PKEIQSKGI-NH2; lactam 3-7)	inactive	inactive	> 75	> 75				
